Assay results taken from ChEMBL document CHEMBL1150172, “Sodium 1-(12-hydroxy)octadecanyl sulfate, an MMP2 inhibitor, isolated from a tunicate of the family Polyclinidae” (J Nat Prod, 2002).

Target: 72 kDa type IV collagenase (Homo sapiens, UniProt P08253)
Experiment: Inhibition of recombinant MMP2

Chain of 72 kDa type IV collagenase (P08253 whole entry): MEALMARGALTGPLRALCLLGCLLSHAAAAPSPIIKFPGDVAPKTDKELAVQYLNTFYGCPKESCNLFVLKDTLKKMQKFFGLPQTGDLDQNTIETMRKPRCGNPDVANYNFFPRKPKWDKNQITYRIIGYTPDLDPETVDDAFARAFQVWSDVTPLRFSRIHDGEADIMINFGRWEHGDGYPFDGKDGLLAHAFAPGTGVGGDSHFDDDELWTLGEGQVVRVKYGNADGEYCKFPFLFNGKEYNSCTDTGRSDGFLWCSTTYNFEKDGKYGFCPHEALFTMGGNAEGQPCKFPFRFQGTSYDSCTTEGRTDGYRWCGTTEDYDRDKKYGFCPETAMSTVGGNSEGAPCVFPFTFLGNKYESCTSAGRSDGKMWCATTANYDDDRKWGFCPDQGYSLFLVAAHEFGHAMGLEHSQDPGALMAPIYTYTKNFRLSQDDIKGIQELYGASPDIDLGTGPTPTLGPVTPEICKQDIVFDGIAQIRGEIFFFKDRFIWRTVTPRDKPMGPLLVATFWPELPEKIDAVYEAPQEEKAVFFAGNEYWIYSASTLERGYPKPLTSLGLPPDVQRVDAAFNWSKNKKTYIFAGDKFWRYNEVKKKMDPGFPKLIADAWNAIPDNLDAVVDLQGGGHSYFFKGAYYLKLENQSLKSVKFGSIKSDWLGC

IC50: 23.2 µM
SMILES: CCCCCCC(O)CCCCCCCCCCCOS(=O)(=O)O (stereo unspecified)
